Test system: 991263-137-R1-J2-PDC complex spheroid viability
Test: Anticancer human tumor 991263-137-R1-J2-PDC patient-derived colon adenocarcinoma cell line growth inhibition [POLQ]
Conditions: for IC50: curve of first compound; for viability, T/C: stronger effect = lower value
Procedure, shortened: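 Three-cell-type spheroids modelling solid tumor plus stroma served as the readout system; POL inhibitors were tested individually and in combination, concentration ranges set by clinical Cmax where known.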

[1] = second compound 0.0316 µM, first compound 0.0316 µM
[2] = second compound 0.0316 µM, first compound 0.1 µM
[3] = second compound 0.0316 µM, first compound 0.316 µM
[4] = second compound 0.0316 µM, first compound 1 µM
[5] = second compound 0.0316 µM, first compound 3.16 µM
[6] = second compound 0.0316 µM, first compound 10 µM
[7] = second compound 0.1 µM, first compound 0.0316 µM
[8] = second compound 0.1 µM, first compound 0.1 µM
[9] = second compound 0.1 µM, first compound 0.316 µM
[10] = second compound 0.1 µM, first compound 1 µM
[11] = second compound 0.1 µM, first compound 3.16 µM
[12] = second compound 0.1 µM, first compound 10 µM
[13] = second compound 0.316 µM, first compound 0.0316 µM
[14] = second compound 0.316 µM, first compound 0.1 µM
[15] = second compound 0.316 µM, first compound 0.316 µM
[16] = second compound 0.316 µM, first compound 1 µM
[17] = second compound 0.316 µM, first compound 3.16 µM
[18] = second compound 0.316 µM, first compound 10 µM
[19] = second compound 1 µM, first compound 0.0316 µM
[20] = second compound 1 µM, first compound 0.1 µM
[21] = second compound 1 µM, first compound 0.316 µM
[22] = second compound 1 µM, first compound 1 µM
[23] = second compound 1 µM, first compound 3.16 µM
[24] = second compound 1 µM, first compound 10 µM
[25] = second compound 3.16 µM, first compound 0.0316 µM
[26] = second compound 3.16 µM, first compound 0.1 µM
[27] = second compound 3.16 µM, first compound 0.316 µM
[28] = second compound 3.16 µM, first compound 1 µM
[29] = second compound 3.16 µM, first compound 3.16 µM
[30] = second compound 3.16 µM, first compound 10 µM
[31] = second compound 10 µM, first compound 0.0316 µM
[32] = second compound 10 µM, first compound 0.1 µM
[33] = second compound 10 µM, first compound 0.316 µM
[34] = second compound 10 µM, first compound 1 µM
[35] = second compound 10 µM, first compound 3.16 µM
[36] = second compound 10 µM, first compound 10 µM
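Further: spheroids exposed to compounds for 7 days before readout.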
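Wherever viability, T/C is given: 100% = DMSO vehicle control viability.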

## O=C(Nc1ccc(O)c(NS(=O)(=O)c2ccc(F)cc2)c1)c1ccc(-c2ccccc2)cc1 + COC1C(OC(N)=O)C(O)C(Oc2ccc3c(O)c(NC(=O)c4ccc(O)c(CC=C(C)C)c4)c(=O)oc3c2C)OC1(C)C
Second compound 0.0316 µM
  IC50: > 10 µM
Second compound 0.1 µM
  IC50: > 10 µM
Second compound 0.316 µM
  IC50: > 10 µM
Second compound 1 µM
  IC50: > 10 µM
Second compound 3.16 µM
  IC50: > 10 µM
Second compound 10 µM
  IC50: > 10 µM
[1]
  viability, T/C: 87.8%
[2]
  viability, T/C: 111%
[3]
  viability, T/C: 112%
[4]
  viability, T/C: 93.5%
[5]
  viability, T/C: 89.3%
[6]
  viability, T/C: 105%
[7]
  viability, T/C: 110%
[8]
  viability, T/C: 119%
[9]
  viability, T/C: 113%
[10]
  viability, T/C: 79.6%
[11]
  viability, T/C: 110%
[12]
  viability, T/C: 93.5%
[13]
  viability, T/C: 93.9%
[14]
  viability, T/C: 112%
[15]
  viability, T/C: 92.8%
[16]
  viability, T/C: 106%
[17]
  viability, T/C: 93.1%
[18]
  viability, T/C: 92.8%
[19]
  viability, T/C: 119%
[20]
  viability, T/C: 101%
[21]
  viability, T/C: 100%
[22]
  viability, T/C: 109%
[23]
  viability, T/C: 109%
[24]
  viability, T/C: 96.3%
[25]
  viability, T/C: 101%
[26]
  viability, T/C: 103%
[27]
  viability, T/C: 91.2%
[28]
  viability, T/C: 79.1%
[29]
  viability, T/C: 111%
[30]
  viability, T/C: 79.6%
[31]
  viability, T/C: 96.5%
[32]
  viability, T/C: 112%
[33]
  viability, T/C: 103%
[34]
  viability, T/C: 104%
[35]
  viability, T/C: 102%
[36]
  viability, T/C: 91.5%

## CCc1cc2c(N3CCc4c(cc(Cn5ccnc5)cc4-c4cn(C)nc4C(F)(F)F)C3=O)cc(C)nc2c(OC)n1 + Nc1ccc(C#CCN(C(=O)Cc2ncc(C(F)(F)F)cc2C(F)(F)F)c2ccc(F)cc2)nn1
Second compound 0.0316 µM
  IC50: > 10 µM
Second compound 0.1 µM
  IC50: > 10 µM
Second compound 0.316 µM
  IC50: > 10 µM
Second compound 1 µM
  IC50: > 10 µM
Second compound 3.16 µM
  IC50: > 10 µM
Second compound 10 µM
  IC50: > 10 µM
[1]
  viability, T/C: 99.3%
[2]
  viability, T/C: 104%
[3]
  viability, T/C: 107%
[4]
  viability, T/C: 98.7%
[5]
  viability, T/C: 89.8%
[6]
  viability, T/C: 92.2%
[7]
  viability, T/C: 105%
[8]
  viability, T/C: 99.9%
[9]
  viability, T/C: 102%
[10]
  viability, T/C: 98.2%
[11]
  viability, T/C: 109%
[12]
  viability, T/C: 96.9%
[13]
  viability, T/C: 102%
[14]
  viability, T/C: 112%
[15]
  viability, T/C: 103%
[16]
  viability, T/C: 103%
[17]
  viability, T/C: 87.7%
[18]
  viability, T/C: 104%
[19]
  viability, T/C: 107%
[20]
  viability, T/C: 107%
[21]
  viability, T/C: 93.2%
[22]
  viability, T/C: 90.5%
[23]
  viability, T/C: 104%
[24]
  viability, T/C: 93%
[25]
  viability, T/C: 94.6%
[26]
  viability, T/C: 99.9%
[27]
  viability, T/C: 98.6%
[28]
  viability, T/C: 96.6%
[29]
  viability, T/C: 95.6%
[30]
  viability, T/C: 83.9%
[31]
  viability, T/C: 94.6%
[32]
  viability, T/C: 103%
[33]
  viability, T/C: 98.2%
[34]
  viability, T/C: 92.7%
[35]
  viability, T/C: 94.9%
[36]
  viability, T/C: 93.2%

## COc1cc(C2c3cc4c(cc3C(OC3OC5COC(C)OC5C(O)C3O)C3COC(=O)C23)OCO4)cc(OC)c1O (stereo not given) + Nc1ccc(C#CCN(C(=O)Cc2ncc(C(F)(F)F)cc2C(F)(F)F)c2ccc(F)cc2)nn1
Second compound 0.0316 µM
  IC50: > 10 µM
Second compound 0.1 µM
  IC50: > 10 µM
Second compound 0.316 µM
  IC50: > 10 µM
Second compound 1 µM
  IC50: > 10 µM
Second compound 3.16 µM
  IC50: > 10 µM
Second compound 10 µM
  IC50: > 10 µM
[1]
  viability, T/C: 106%
[2]
  viability, T/C: 94.4%
[3]
  viability, T/C: 108%
[4]
  viability, T/C: 94.4%
[5]
  viability, T/C: 93.2%
[6]
  viability, T/C: 74.4%
[7]
  viability, T/C: 115%
[8]
  viability, T/C: 99.8%
[9]
  viability, T/C: 102%
[10]
  viability, T/C: 98.9%
[11]
  viability, T/C: 91%
[12]
  viability, T/C: 74.5%
[13]
  viability, T/C: 97.9%
[14]
  viability, T/C: 122%
[15]
  viability, T/C: 107%
[16]
  viability, T/C: 92.4%
[17]
  viability, T/C: 93.5%
[18]
  viability, T/C: 72.2%
[19]
  viability, T/C: 100%
[20]
  viability, T/C: 104%
[21]
  viability, T/C: 97.8%
[22]
  viability, T/C: 96.4%
[23]
  viability, T/C: 99.9%
[24]
  viability, T/C: 74.9%
[25]
  viability, T/C: 96.3%
[26]
  viability, T/C: 96.8%
[27]
  viability, T/C: 103%
[28]
  viability, T/C: 86.7%
[29]
  viability, T/C: 72.1%
[30]
  viability, T/C: 66.1%
[31]
  viability, T/C: 89.6%
[32]
  viability, T/C: 96.1%
[33]
  viability, T/C: 88.7%
[34]
  viability, T/C: 68.8%
[35]
  viability, T/C: 70.9%
[36]
  viability, T/C: 61.5%

## C#Cc1c(F)ccc2cc(O)cc(-c3ncc4c(N5CC6CCC(C5)N6)nc(OCC56CCCN5CC(F)C6)nc4c3F)c12 (stereo not given) + Nc1ccc(C#CCN(C(=O)Cc2ncc(C(F)(F)F)cc2C(F)(F)F)c2ccc(F)cc2)nn1
Second compound 0.0316 µM
  IC50: > 10 µM
Second compound 0.1 µM
  IC50: > 10 µM
Second compound 0.316 µM
  IC50: > 10 µM
Second compound 1 µM
  IC50: > 10 µM
Second compound 3.16 µM
  IC50: > 10 µM
Second compound 10 µM
  IC50: > 10 µM
[1]
  viability, T/C: 104%
[2]
  viability, T/C: 111%
[3]
  viability, T/C: 99.6%
[4]
  viability, T/C: 102%
[5]
  viability, T/C: 105%
[6]
  viability, T/C: 88%
[7]
  viability, T/C: 103%
[8]
  viability, T/C: 108%
[9]
  viability, T/C: 96.5%
[10]
  viability, T/C: 102%
[11]
  viability, T/C: 103%
[12]
  viability, T/C: 92%
[13]
  viability, T/C: 103%
[14]
  viability, T/C: 99.8%
[15]
  viability, T/C: 99.8%
[16]
  viability, T/C: 102%
[17]
  viability, T/C: 105%
[18]
  viability, T/C: 108%
[19]
  viability, T/C: 97.5%
[20]
  viability, T/C: 95.2%
[21]
  viability, T/C: 107%
[22]
  viability, T/C: 86.8%
[23]
  viability, T/C: 106%
[24]
  viability, T/C: 96.1%
[25]
  viability, T/C: 102%
[26]
  viability, T/C: 105%
[27]
  viability, T/C: 104%
[28]
  viability, T/C: 112%
[29]
  viability, T/C: 123%
[30]
  viability, T/C: 98.7%
[31]
  viability, T/C: 100%
[32]
  viability, T/C: 98.2%
[33]
  viability, T/C: 93.4%
[34]
  viability, T/C: 101%
[35]
  viability, T/C: 87.6%
[36]
  viability, T/C: 80.4%

## O=C(c1cc(Cc2n[nH]c(=O)c3ccccc23)ccc1F)N1CCN(C(=O)C2CC2)CC1 + Cc1cccc(N(C)C(=O)C2C(O)CCN2c2nc(C)cc(C(F)(F)F)c2C#N)c1
Second compound 0.0316 µM
  IC50: > 10 µM
Second compound 0.1 µM
  IC50: > 10 µM
Second compound 0.316 µM
  IC50: > 10 µM
Second compound 1 µM
  IC50: > 10 µM
Second compound 3.16 µM
  IC50: > 10 µM
Second compound 10 µM
  IC50: > 10 µM
[1]
  viability, T/C: 105%
[2]
  viability, T/C: 99.1%
[3]
  viability, T/C: 92.4%
[4]
  viability, T/C: 105%
[5]
  viability, T/C: 79.5%
[6]
  viability, T/C: 79.3%
[7]
  viability, T/C: 101%
[8]
  viability, T/C: 104%
[9]
  viability, T/C: 93.2%
[10]
  viability, T/C: 84.4%
[11]
  viability, T/C: 87.1%
[12]
  viability, T/C: 99%
[13]
  viability, T/C: 92.5%
[14]
  viability, T/C: 118%
[15]
  viability, T/C: 96%
[16]
  viability, T/C: 99.3%
[17]
  viability, T/C: 90%
[18]
  viability, T/C: 72%
[19]
  viability, T/C: 90.2%
[20]
  viability, T/C: 91.3%
[21]
  viability, T/C: 91.5%
[22]
  viability, T/C: 111%
[23]
  viability, T/C: 107%
[24]
  viability, T/C: 91.4%
[25]
  viability, T/C: 80.8%
[26]
  viability, T/C: 95.3%
[27]
  viability, T/C: 92.8%
[28]
  viability, T/C: 80.4%
[29]
  viability, T/C: 108%
[30]
  viability, T/C: 95.8%
[31]
  viability, T/C: 96.5%
[32]
  viability, T/C: 101%
[33]
  viability, T/C: 86.1%
[34]
  viability, T/C: 100%
[35]
  viability, T/C: 106%
[36]
  viability, T/C: 90.4%
